# Source: patent US11692175B2, “Methods for generation of pluripotent and multipotent cells” (The USA, as represented by the Secretary, Dept. of Health …, priority 2012, dated 2023)
# Values joined by “and” are separate entries in the source; they are usually repeats but may differ in a detail not shown here. Equal entries are not always repeated.
# Assays:
# HUVECs = test: Real-time PCR of HUVECs treated for three weeks with neural medium and 7N3 peptide or B6H12 antibody; format: cell-based, human
# Experimental: (§1) RNA extraction and Real Time PCR: Total RNA was extracted using TRIzol® reagent (Invitrogen, Rockville, Md.) 24-36 hours after transfection or as indicated. Harvested mouse tissues were frozen in liquid nitrogen or placed into RNA Later™ RNA Stabilization Reagent (Ambion, Life Technologies, Grand Island, N.Y.). Whole organs (lungs, spleen, kidney, testis, skeletal muscle, brain, heart, and liver) were homogenized in TRIzol® reagent, and RNA was isolated, cDNA was prepared using First Maxima First Strand cDNA Synthesis kit for RT-qPCR (Fermentas Life Sciences, Glen Burnie, Md.). Real Time PCR was performed using the primers listed herein as SEQ ID NOs: 3-34, and SYBR Green PCR master reaction mix (AB applied Sciences, Life Technologies, Grand Island, N.Y.) on an MJ Research OPTICON I instrument (Bio-Rad) with the following amplification program: 95° C. for 15 minutes, followed by 40 cycles of 95° C. for 15 seconds, 58° C. for 20 seconds, 72° C. for 25 seconds, and 7° C. for 1 minute. Melting curves were performed for each product from 30° C. to 95° C. reading every 0.5° C. with a 6-second dwell time. The fold changes in mRNA expression were calculated by normalizing to hypoxanthine phosphoribosyltransferase (HPRT1) and TATA-box binding protein associated factor (TAF9) for mouse tissues and endothelial cells, or β-2 microglobulin (B2M) mRNA levels for spleen and isolated splenocytes. B2M was used for normalization of mRNA levels in human cells. Note that the total RNA yield per cell was higher for all CD47-null and CD47-deficient cells and tissues as compared to WT. […]
# WT Jurkat T cells = test: QPCR analysis of c-Myc mRNA in WT Jurkat T cells treated with CD47 binding peptides; format: cell-based, human; details: for c-Myc expression (FIG. 21B): 1 μM or 10 μM
# Experimental: FIGS. 21A and B are a pair of graphs showing QPCR analysis of c-Myc mRNA expression. WT Jurkat T cells were treated with the CD47 binding peptide 459 (also known as peptide 4N1) or control peptide 761 at 1 μM or 0.1 μM (FIG. 21A). WT Jurkat T cells were also treated with the CD47-binding peptide 7N3 or the control peptide 604 at 1 μm or 10 μM (FIG. 21B).
# (§2) RNA extraction and Real Time PCR: Total RNA was extracted using TRIzol® reagent (Invitrogen, Rockville, Md.) 24-36 hours after transfection or as indicated. Harvested mouse tissues were frozen in liquid nitrogen or placed into RNA Later™ RNA Stabilization Reagent (Ambion, Life Technologies, Grand Island, N.Y.). Whole organs (lungs, spleen, kidney, testis, skeletal muscle, brain, heart, and liver) were homogenized in TRIzol® reagent, and RNA was isolated, cDNA was prepared using First Maxima First Strand cDNA Synthesis kit for RT-qPCR (Fermentas Life Sciences, Glen Burnie, Md.). Real Time PCR was performed using the primers listed herein as SEQ ID NOs: 3-34, and SYBR Green PCR master reaction mix (AB applied Sciences, Life Technologies, Grand Island, N.Y.) on an MJ Research OPTICON I instrument (Bio-Rad) with the following amplification program: 95° C. for 15 minutes, followed by 40 cycles of 95° C. for 15 seconds, 58° C. for 20 seconds, 72° C. for 25 seconds, and 7° C. for 1 minute. Melting curves were performed for each product from 30° C. to 95° C. reading every 0.5° C. with a 6-second dwell time. The fold changes in mRNA expression were calculated by normalizing to hypoxanthine phosphoribosyltransferase (HPRT1) and TATA-box binding protein associated factor (TAF9) for mouse tissues and endothelial cells, or β-2 microglobulin (B2M) mRNA levels for spleen and isolated splenocytes. B2M was used for normalization of mRNA levels in human cells. Note that the total RNA yield per cell was higher for all CD47-null and CD47-deficient cells and tissues as compared to WT.
# HUVEC [1] = test: Sustained proliferation / self-renewal of HUVEC in continuous culture; format: cell-based, human; details: 7N3 10 μM; B6H12 1 μg/ml
# Source text: (§3) Human umbilical vein endothelial cells (HUVEC), which express CD47, normally become senescent with repeated passage in tissue culture (FIG. 16A).
# Therefore, antisense suppression of CD47 is sufficient to induce reprogramming of primary endothelial cells of a mesodermal lineage into an ectodermal lineage.
# HUVEC [2] = test: MTS proliferation assay of treated HUVEC; format: cell-based, human; details: 6 days post-treatment
# Experimental: Cell proliferation assays: Equal numbers of mouse lung endothelial cells from WT and CD47 (Passage 1) were plated in 96 well plates using RPMI+1% FBS. After 72 hours, net cell proliferation was assessed by the increase in formazan absorbance versus controls assessed at time 0 using Cell Titer 96R aqueous MTS kit (Promega, Madison, Wis.). DNA synthesis was measured using a BrdU Assay (EMD Biosciences, Billerica, Mass.).
# Proliferative capacities of the treated HUVEC (CD47 morpholino, 7N3 peptide, or 604 control peptide) were assessed using MTS assays.
# Jurkat T cells = test: c-Myc mRNA in Jurkat T cells treated with thrombospondin-1 or CD47-binding peptide (real time PCR); format: cell-based, human; details: for c-Myc levels (FIG. 7E): CD47-binding peptide vs control peptide
# Experimental: as §2
# Modulation of stem cell transcription factors by thrombospondin-1: Jurkat and JinB8 cells were centrifuged and re-suspended in RPMI+1% FBS at 10^6 cells/ml. Cells were plated in 12 well plates and treated with 1 μg/ml (2.2 nM) TSP1 using the indicated times and concentrations, and total RNA was isolated using TRIzol® reagent.
# TSP1 null cells = test: Sustained proliferation of TSP1 null murine lung endothelial cells; format: cell-based, mouse; details: relative to WT cells
# Source text: Cell culture and reagents: Thrombospondin-1 null (Lawler et al., J Clin Invest 101, 982-992, 1998) CD47 null mice (Lindberg et al., Science 274, 795-798, 1996) extensively back-crossed onto a C57Bl/6J background and WT mice were maintained in a pathogen-free environment according to protocols approved by the NCI Animal Care and Use Committee. Mouse lung endothelial cells were isolated and their purity verified as described previously (Zhou et al., Oncogene 25, 536-545, 2006). These conditions were previously documented to reproducibly yield >95% pure endothelial cells at passage two (CD31+, smooth muscle actin-). Mouse lung endothelial cells were cultured at 37° C. with 5% CO2 using Endothelial Growth Medium-2 (EGM2) (Thermo Scientific Fisher. Inc., Waltham, Mass.). Cell populations from mouse spleens were separated using the Pan T cell Isolation (130-095-130), CD4 (L3T4) (130-049-201), CD8a (Ly-2) (130-049-401) CD11b (130-049-601), CD19 microbead kits (130-052-201) (MACS, Miltenyi Biotech Germany).
# as §3
# Human rTEC = test: RT-PCR of self-renewal genes in human renal tubular epithelial cells; format: cell-based
# Experimental: FIG. 25 is a series of graphs showing that blockade of CD47 elevates self-renewal transcription factors in human renal cells. Human rTEC were treated with TSp1 (2.2 nmol/L)±a CD47 monoclonal Ab (clone B6H12, 1 μg/ml) and RT-PCR performed for the indicated targets (top, c-Myc; middle. Sox2; bottom, Klf4). Results are the mean (±S.E.M.) of three separate experiments.
# TSP1 inhibits self-renewal signals in primary human renal tubular epithelial cells, and CD47 blockade therapy elevates self renewal genes in human renal cells: It is not clear what role the TSP1-CD47 signal cascade played on self-renewal signaling in specific renal cell types. We wanted to confirm in human cells that activation of CD47 inhibits self-renewal genes. Renal tubular epithelial cells (rTEC) are a primary source of injury in the kidney. Human rTEC were treated with a low concentration of exogenous TSP1 (2.2 nmol/L) and found suppression of self-renewal genes including cMyc and Sox2 and Klf4 (FIG. 25). […] Thus, in human renal cells CD47 blockade increases the stem cell-pluripotent capacity of renal cells.
# [3] = test system: JinB8 cells re-expressing CD47; test: c-Myc expression in JinB8 cells re-expressing CD47 treated with thrombospondin-1; format: cell-based, human; details: CD47 re-expressed in JinB8 cells
# Experimental: JINB8 cells were transfected with CD47-V5 construct using Amaxa™ Nucleofector™ (Lonza) non-viral transfection technology. The transfection efficiency was determined by flow Cytometry. The CD47-V5 transfected cells were purified using magnetic beads bound with human CD47 antibody (B6H12). The transfected cells were loaded onto MACS column which was placed in the magnetic field of a MACS® separator (Miltenyi Biotec). The magnetic bead labeled CD47^+ cells were retained on the column. The unlabeled cells ran through and were depleted from CD47^+ cells. After removal of the column, the CD47^+ cells bound to magnetic beads were eluted. The pure population of CD47^+ cells was stably cultured using G418 (250 μg/ml). The pure population of CD47^+ and Jurkat cells were centrifuged and re-suspended in RPMI with 1% FBS at 10^6 cells/ml. Cells were plated in 12 well plates and treated with 1 μg/ml (2.2 nM) thrombospondin-1, and total RNA was isolated using TRIzol®. The relative gene expression of c-MYC was measured using GAPDH as a control.
# JinB8 cells = test: c-Myc mRNA in CD47-deficient JinB8 cells treated with thrombospondin-1; format: cell-based, human; details: Jurkat cells lacking CD47; at 24 hours
# Experimental: as §1, with “splenocytes.” for “splenocytes. B2M was used for normalization of mRNA levels in human cells. Note that the total RNA yield per cell was higher for all CD47-null and CD47-deficient cells and tissues as compared to WT.”
# [4] = real-time PCR, HUVECs three weeks in neural medium, two values per treatment
substance,measurement,setting,value
FIRVVMYEGKK (Synthetic peptide 7N3),"expression of mRNAs encoding c-Myc and other stem cell transcription factors (Sox2, Klf4, Oct4) and nestin","HUVECs; EBM serum free (neural basal) medium for 3 weeks, in words",high expression
same,Oct4 C(t),HUVECs; [4],34.48 and 34
same,c-Myc C(t),HUVECs; [4],30.19 and 18.49
same,klf4 C(t),HUVECs; [4],26.31 and 26.17
same,nestin C(t),HUVECs; [4],31.6104 and 31.32
same,sox2 C(t),HUVECs; [4],28.09 and 29
same,c-Myc expression (FIG. 21B),WT Jurkat T cells,more dramatic increase
same,sustained proliferation,HUVEC [1],dramatically increased
same,proliferation (MTS),HUVEC [2],enhanced proliferation
same,c-Myc levels (FIG. 7E),Jurkat T cells,suppression
same,proliferative response,TSP1 null cells,their response was less than the WT cells
TSP1: Human TSP1 purified from the supernatant of thrombin-activated platelets; CD47 ligand,expression of self-renewal transcription genes,"Human rTEC; TSP1 2.2 nM, low passage cells",decreased expression of self-renewal transcription genes
same,Klf4 expression,"Human rTEC; TSP1 2.2 nmol/L, B6H12 1 μg/ml",suppression
same,Sox2 expression,"Human rTEC; TSP1 2.2 nmol/L, B6H12 1 μg/ml",suppression
same,cMyc expression,"Human rTEC; TSP1 2.2 nmol/L, B6H12 1 μg/ml",suppression
same,"c-Myc levels, time course",Jurkat T cells; 2.2 nM thrombospondin-1,transiently induced but then strongly inhibited
same,c-MYC expression (FIG. 14D),Jurkat T cells; Jurkat cells,reduces c-MYC expression
same,concentration sufficient to inhibit c-Myc expression,Jurkat T cells; at 24 hours,Picomolar concentrations
same,c-Myc expression,[3],reduces c-MYC expression
same,c-Myc expression,[3]; listed as thrombospondin-1,restored the ability of thrombospondin-1 to inhibit c-Myc expression
same,c-Myc mRNA levels,JinB8 cells,not significantly inhibited
FIRGGMYEGKK (Synthetic peptide 604) [compound 604],c-Myc expression (FIG. 21B),WT Jurkat T cells,did not
same,proliferation (MTS),HUVEC [2],decreased proliferation
same,c-Myc levels (FIG. 7E),Jurkat T cells,inactive
RFYVVMWK (Synthetic peptide - 4N1) [compound 459],c-Myc mRNA expression (FIG. 21A),"WT Jurkat T cells; 0.1 μM, at 72 hours, relative to control peptide 761",significantly increased
